In one data set the target is T1, CDK4/cyclin D1 (Homo sapiens, UniProt P11802).
T1 construct: purchased Life Technologies
As to the kind of experiment: CDK4/cyclin D1 Lance Ultra enzyme assay. In kind it is biochemical. To be noted: for inhibitory activities against CDK4 compared with the reference compounds: versus Palbociclib and LY2835219, in words; for IC50: 350 μM ATP, 180 minutes. The procedure: (§1) The experimental materials included CDK2/cyclin A, CDK4/cyclin D1, CDK6/cyclin D1 (Life Technologies); ULight-labeled polypeptide substrates, i.e., ULight-4E-BP1 and ULight-MBP (PerkinElmer); the europium-labeled antibody against anti-myelin basic protein and europium-labeled rabbit antibody (PerkinElmer); and Envision® Multilabel Plate Reader (PerkinElmer) used for signal detection.
(§2) The compounds to be tested were diluted three times so as to be at ten gradually varied concentrations.
The dilutions of the compounds were dissolved in enzyme buffer, respectively. The components of the buffer included 50 mM hydroxyethylpiperazine ethanesulfonic acid solution (pH 7.5), 1 mM ethylenediaminetetraacetic acid, 10 mM magnesium chloride, 0.01% Brij-35, and 2 mM dithiothreitol. After the reaction started, the OptiPlate 384-well plate was sealed with top heat-sealing film TopSeal-A and incubated at room temperature for 180 minutes. • The Enzyme Reaction System of CDK6/Cyclin D1
(§3) The stop buffer of the enzyme reaction was prepared by dissolving EDTA in a one-fold dilution of the assay buffer. The reaction was terminated at room temperature for 5 minutes. To each of the reaction systems of CDK2/cyclin A, CDK4/cyclin D1 and CDK6/cyclin D1 was added 5 μL assay mixture (provided with antibody the europium-labeled against anti-myelin basic protein and the europium-labeled rabbit antibody, respectively). They were incubated at room temperature for 60 minutes. The reaction signals were detected by the EnVision instrument according to the principle of time-resolved fluorescence resonance energy transfer.

The target of the next data set is T2, CDK6/cyclin D1 (Homo sapiens, UniProt Q00534).
T2 construct: purchased Life Technologies
As to the kind of experiment: CDK6/cyclin D1 Lance Ultra enzyme assay. In kind it is biochemical. The settings on record: for IC50: 250 μM ATP, 180 minutes; for inhibitory activities against CDK6 compared with the reference compounds: versus Palbociclib and LY2835219, in words. On the procedure: as §1, §2
The dilutions of the compounds were dissolved in enzyme buffer, respectively. The components of the buffer included 50 mM hydroxyethylpiperazine ethanesulfonic acid solution (pH 7.5), 1 mM ethylenediaminetetraacetic acid, 10 mM magnesium chloride, 0.01% Brij-35, and 2 mM dithiothreitol. After the reaction started, the OptiPlate 384-well plate was sealed with top heat-sealing film TopSeal-A and incubated at room temperature for 180 minutes.
as §3

The test system of another data set is MCF-7 cells. As to the kind of experiment: MCF-7 cell proliferation (CellTiter-Glo, 6 days). In kind it is cell-based, human. The settings on record: for IC50: Homo sapiens, MCF7, proliferation, 6 days; for MCF-7/MDA-MB-436: ratio of the proliferation IC50 values; for inhibitory activities against the proliferation of MCF-7 cells compared with the reference compounds: versus Palbociclib and LY2835219, in words. On the procedure: EnVision® Multilabel Plate Reader (PerkinElmer) was used.
MCF-7 cells were inoculated in a black 384-well plate by adding 45 μL of the cell suspension (containing 200 of MCF-7 cells) to each of the wells. The plate was incubated overnight in a carbon dioxide incubator.
(§4) A duplicate well test was performed. The medium was added to the middle plate in an amount of 49 μL per well. The gradient dilutions of the compounds were transferred in an amount of 1 μL per well to the middle plate at the corresponding positions, and the mixture was mixed and transferred to the cell plate in an amount of 5 μL per well. The cell plate was incubated in a carbon dioxide incubator for 6 days. Promega CellTiter-Glo reagent was added to the cell plate in an amount of 25 μL per well. The cell plate was incubated at room temperature for 10 minutes to stabilize the luminescence signal. EnVision® Multilabel Plate Reader (PerkinElmer) was used for signal detection.
Background: In ATP-based viability assays light output follows the ATP content of the culture.

Another data set has as its system MDA-MB-436 cells. Kind of data set: MDA-MB-436 cell proliferation (CellTiter-Glo). It is filed as cell-based. The settings on record: Homo sapiens. The procedure: RPMI 1640 medium, fetal bovine serum, penicillin/streptomycin were purchased from Promega (Madison, Wis.). The MCF-7 cell line and the MDA-MB-436 cell line were purchased from the European Collection of Authenticated Cell Cultures (ECACC). EnVision® Multilabel Plate Reader (PerkinElmer) was used.
as §4, with “The compounds to be tested were diluted three times using Bravo to the tenth concentration, i.e., diluted from 10 μM to 0.508 nM. A” for “A”
The IC50 values were obtained by curve fitting using four parameters (obtained from the 205 mode in XLFIT5, iDBS). Table 1 provides the inhibitory activities of the compounds of the invention against the proliferation of MCF-7 cells and MDA-MB-436 cells.

Data set [1] concerns human breast cancer cell line MCF-7. It is filed as in vivo. On the procedure:
The in vivo pharmacodynamic study was carried out in human-based tumor cell line-derived xenografted (CDX) BALB/c nude mice, in which were subcutaneously implanted human breast cancer cell line MCF-7.
. All the cages, matts and water were disinfected before use. All the animals had free access to a standard certified commercial laboratory diet. A total of 100 mice were purchased from Shanghai BK Laboratory Animal Co., LTD for study. An estrogen tablet ([…], sustained release within 60 days) was subcutaneously implanted in the left next abdomen of each mice. After 3 days, the tumor cells (10×10^6 in 0.2 mL of phosphate buffer) were subcutaneously implanted in the right next abdomen of each mice for the tumor growth. The administration started when the average tumor volume reached about 150-200 mm^3. The test compounds were orally administered daily, the doses were shown as Table 5. The tumor volumes were measured with a two-dimensional caliper every three days, the volumes were expressed in cubic millimeters and calculated by the formula V=0.5a×b^2, wherein a and b were the major diameter and minor diameter of the tumor, respectively. Antitumor efficacy was determined by dividing an average increase of the tumor volumes of the animals treated with the compounds by an increase of the tumor volumes of the untreated animals.

The target of the next data set is T3, CDK2/cyclin A (Homo sapiens, UniProt P24941).
T3 construct: purchased Life Technologies
As to the kind of experiment: CDK2/cyclin A Lance Ultra enzyme assay. It is filed as biochemical. To be noted: 25 μM ATP, 60 minutes. On the procedure: as §1, §2
The gradient dilutions of the compounds were dissolved in enzyme buffer, respectively. The components of the buffer included 50 mM hydroxyethylpiperazine ethanesulfonic acid solution (pH 7.5), 1 mM ethylenediaminetetraacetic acid, 10 mM magnesium chloride, 0.01% Brij-35, and 2 mM dithiothreitol. After the reaction started, the OptiPlate 384-well plate was sealed with top heat-sealing film TopSeal-A and incubated at room temperature for 60 minutes. • The Enzyme Reaction System of CDK4/Cyclin D1
as §3

Data set [2] in a line: Study of brain permeability after oral administration. It is filed as in vivo, SD rats. The settings on record: for Exposure in brain: 10 mg/kg oral. On the procedure: SD rats were used as the test animals.
Twelve healthy 7- to 9-week-old adult male SD rats were purchased from Shanghai Slack Laboratory Animal Co., Ltd. A proper amount of the test compound was weighed to prepare a 0.5% methylcellulose suspension at 1 mg/mL. The rats received a single oral dose of 10 mg/kg. 0.5 h, 2 h, 8 h, and 24 hours after the administration, 3 rats were respectively killed, and their whole blood and brain tissues were collected. The plasma was prepared by centrifuging the whole blood (3000 g, 15 minutes, 4° C.). The samples of brain homogenate were prepared by mixing the brain tissues with a mixture of methanol and a phosphate buffer (methanol:phosphate buffer=1:2) as homogenate at a ratio of 5:1. The drug concentration of each sample was determined by LC/MS/MS, and AUC was calculated to evaluate the exposure.

Another data set deals with Caco-2 monolayer cells. As to the kind of experiment: Caco-2 cell bi-directional permeability assessment. To be noted: Caco-2. A general note: Passage across Caco-2 layers is used to estimate intestinal permeability.
Data set [3] in a line: Caco-2 cell bi-directional permeability assessment. The settings on record: human, Caco-2, pH 7.4.
Method: (§5) The standard experimental conditions were as follows: • Test concentration: 2 μM (DMSO≤1%); • Number of replication: n=2; • Direction: bi-directional transportation, including two directions, i.e., A→B and B→A; • Incubation time: single time point, 2 hours; • Transport buffer: HBSS, pH 7.4; • Incubation conditions: 37° C., 5% CO2.
(§6) After the incubation, sample solutions taken from the dosing wells and the receiving wells were immediately mixed with a cold acetonitrile solution containing the internal standard. Concentrations of the test compounds in all samples (including the initial dosing solutions, the supernatants of the dosing wells and the receiving solutions) were determined by a LC/MS/MS method. The apparent permeability coefficients, the efflux ratios and other parameters were calculated.

Where two headings read alike, the source gives them in different places. Where only a bound is given, the exact number is not on record here.

T2 sequence (Q00534 whole entry): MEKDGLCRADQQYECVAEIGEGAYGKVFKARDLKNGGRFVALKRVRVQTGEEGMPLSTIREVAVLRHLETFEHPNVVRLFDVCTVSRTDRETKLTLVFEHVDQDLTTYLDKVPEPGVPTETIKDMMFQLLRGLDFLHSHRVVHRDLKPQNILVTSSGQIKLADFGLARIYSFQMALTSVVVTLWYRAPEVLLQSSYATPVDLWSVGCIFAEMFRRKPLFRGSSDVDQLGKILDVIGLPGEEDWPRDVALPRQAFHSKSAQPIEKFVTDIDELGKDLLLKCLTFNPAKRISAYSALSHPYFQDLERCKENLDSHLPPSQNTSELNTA
T2 sequence (P24385 whole entry partner): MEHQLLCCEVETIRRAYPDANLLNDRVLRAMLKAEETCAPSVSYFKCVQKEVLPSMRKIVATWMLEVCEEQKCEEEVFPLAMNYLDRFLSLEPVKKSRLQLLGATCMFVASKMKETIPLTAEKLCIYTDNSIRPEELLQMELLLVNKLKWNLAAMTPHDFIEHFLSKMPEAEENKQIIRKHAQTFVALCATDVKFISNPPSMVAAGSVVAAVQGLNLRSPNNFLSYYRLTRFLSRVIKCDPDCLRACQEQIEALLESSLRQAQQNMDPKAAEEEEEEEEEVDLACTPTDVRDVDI
T1 sequence (P11802 whole entry): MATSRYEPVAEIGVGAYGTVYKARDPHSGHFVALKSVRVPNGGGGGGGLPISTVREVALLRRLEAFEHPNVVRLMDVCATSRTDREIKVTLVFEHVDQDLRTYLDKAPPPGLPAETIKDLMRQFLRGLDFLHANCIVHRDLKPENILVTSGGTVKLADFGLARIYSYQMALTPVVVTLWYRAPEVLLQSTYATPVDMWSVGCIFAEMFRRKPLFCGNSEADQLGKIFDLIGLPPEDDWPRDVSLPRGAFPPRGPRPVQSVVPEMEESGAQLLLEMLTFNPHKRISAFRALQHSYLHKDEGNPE
T1 sequence (P24385 whole entry partner): as the sequence (P24385 whole entry partner) above
Method for Caco-2 monolayer cells: as §5, §6

Usually IC50 stands for the point on the concentration scale where inhibition reaches its midpoint. `CC(C)c1c2cc(-c3nc(Nc4ccc(N5CCNCC5)cn4)ncc3F)ccc2nn1C` [Example 3, 5-fluoro-4-(3-isopropyl-2-methyl-2H-indazol-5-yl)-N-(5-(piperazin-1-yl)pyridin-2-yl) pyrimidine-2-amine]: the “inhibitory activities against CDK4 compared with the reference compounds” value against CDK4/cyclin D1 is listed as “higher inhibitory activities”. The IC50 is less than 0.8 nM against CDK6/cyclin D1, 32.1 nM with MCF-7 cells and 328 nM in the data set on MDA-MB-436 cells. For the same compound, at CDK6/cyclin D1, the “inhibitory activities against CDK6 compared with the reference compounds” value was “higher inhibitory activities”. Moreover, in the data set on MCF-7 cells, the MCF-7/MDA-MB-436 is on record as 10.2. The Tomor volumes worked out at 187 mm^3 in [1] (25.0 mg/kg orally daily, 0 day); 249 mm^3 in [1] (25.0 mg/kg orally daily, 7th day); 288 mm^3 in data set [1] (25.0 mg/kg orally daily, 14th day); 432 mm^3 in [1] (25.0 mg/kg orally daily, 21st day). Further, the “antitumor activities in the CDX model of MCF-7 breast cancer” value in data set [1] (in words) is “significant antitumor activities”.

For the compound `CC(C)c1c2cc(-c3nc(Nc4ccc(N5CCN(CCO)CC5)cn4)ncc3F)ccc2nn1C` [Example 10, 2-[4-[6-[[5-fluoro-4-(3-isopropyl-2-methyl-2H-indazol-5-yl)pyrimidin-2-yl]amino]-3-pyridyl]piperazin-1-yl]ethanol], at CDK4/cyclin D1, the IC50 was determined as 0.88 nM and the “inhibitory activities against CDK4 compared with the reference compounds” value is “higher inhibitory activities”. For the same compound, on CDK6/cyclin D1, the IC50 was 0.97 nM and the “inhibitory activities against CDK6 compared with the reference compounds” value was “higher inhibitory activities”. The IC50 against CDK2/cyclin A was 6.62 nM. Besides, in the data set on MCF-7 cells, half-maximal inhibition (IC50) was put at 28.9 nM, the MCF-7/MDA-MB-436 is listed as 17.2 and the “inhibitory activities against the proliferation of MCF-7 cells compared with the reference compounds” value is on record as “higher inhibitory activities”. The same compound displayed an IC50 in the data set with MDA-MB-436 cells of 496 nM.

For `CC(C)c1c2cc(-c3nc(Nc4ccc(C5CCNCC5)cn4)ncc3F)ccc2nn1C` [Example 13, 5-fluoro-4-(3-isopropyl-2-methyl-2H-indazol-5-yl)-N-[5-(piperidin-4-yl)-2-pyridyl]pyrimidine-2-amine], in [2] (rat, versus Palbociclib and LY2835219, in words, b797: 0.5 hour and 2 hour), the “exposure in brain tissue compared with the reference compounds” value is “much higher”. Moreover, the “Classification Substrates of efflux transporters” value with Caco-2 monolayer cells is on record as “not a substrate of an efflux transporter”.

In general, Papp A→B refers to the apparent permeability from the apical to the basolateral side of a cell layer. A high value points to ready permeation. As usually defined, the Papp B→A is the apparent permeability from the basolateral to the apical side of a cell layer. As for `CCN1CCN(Cc2ccc(Nc3ncc(F)c(-c4cc(F)c5nc(C)n(C(C)C)c5c4)n3)nc2)CC1` [LY2835219, Abemaciclib, reference compound], the MCF-7/MDA-MB-436 in the data set with MCF-7 cells amounted to 17.3. The same compound gave an IC50 in the data set with MDA-MB-436 cells of 1030 nM. Also, the Exposure in brain in data set [2] (time point 0.5 h) came to 62 nmol/kg; in [2] (time point 2 h), 525 nmol/kg; in [2] (time point 8 h), 774 nmol/kg. Moreover, the Tomor volumes in data set [1] (50.0 mg/kg orally daily, 0 day) is on record as 187 mm^3; in data set [1] (50.0 mg/kg orally daily, 7th day) it was 261 mm^3; in data set [1] (50.0 mg/kg orally daily, 14th day), 315 mm^3; in [1] (50.0 mg/kg orally daily, 21st day), 443 mm^3. In data set [3], this compound yielded a Papp A→B at 2 h, 2 μM of 2.69 ×10⁻⁶ cm/s. This compound registered a Papp B→A at 2 h, 2 μM in data set [3] of 6.34 ×10⁻⁶ cm/s. Also, the “Classification Permeability” value with Caco-2 monolayer cells is reported as “High”.

As to `CC(C)c1c2cc(-c3nc(Nc4ccc(N5CCN(CCN)CC5)cn4)ncc3F)ccc2nn1C` [Example 9, N-[5-[4-(2-aminoethyl)piperazin-1-yl]-2-pyridyl]-5-fluoro-4-(3-isopropyl-2-methyl-2H-indazol-5-yl)pyrimidine-2-amine], at CDK4/cyclin D1, the IC50 was found to be 0.31 nM and the “inhibitory activities against CDK4 compared with the reference compounds” value was “higher inhibitory activities”. Moreover, at CDK6/cyclin D1, the IC50 was less than 0.8 nM and the “inhibitory activities against CDK6 compared with the reference compounds” value is recorded as “higher inhibitory activities”. The IC50 on CDK2/cyclin A worked out at 5.95 nM. In addition, in the data set with MCF-7 cells, the IC50 was 45 nM, the MCF-7/MDA-MB-436 was 14.8 and the “inhibitory activities against the proliferation of MCF-7 cells compared with the reference compounds” value is listed as “higher inhibitory activities”. Besides, in the data set with MDA-MB-436 cells, the IC50 is 667 nM.

Take `CC(C)c1c2cc(-c3nc(Nc4ccc(N5C[C@@H]6C[C@H]5CN6)cn4)ncc3F)ccc2nn1C` [Example 15, N-(5-((1 S,4S)-2,5-diazabicyclo[2.2.1]heptan-2-yl)pyridin-2-yl)-5-fluoro-4-(3-isopropyl-2-methyl-2H-indazol-5-yl)pyrimidine-2-amine]: at CDK4/cyclin D1, the IC50 was less than 0.3 nM and the “inhibitory activities against CDK4 compared with the reference compounds” value is given as “higher inhibitory activities”. For the same compound, at CDK6/cyclin D1, the IC50 was less than 0.8 nM and the “inhibitory activities against CDK6 compared with the reference compounds” value is “higher inhibitory activities”. Also, the IC50 against CDK2/cyclin A came to 2.82 nM. Further, in the data set on MCF-7 cells, the IC50 is 56 nM, the MCF-7/MDA-MB-436 is 9.3 and the “inhibitory activities against the proliferation of MCF-7 cells compared with the reference compounds” value was “higher inhibitory activities”. Further, the IC50 in the data set with MDA-MB-436 cells worked out at 522 nM.

On to `CC(C)c1c2c(nn1C)CCN(c1nc(Nc3ccc(C4CCN(C)CC4)cn3)ncc1F)C2` [Example 24], for which the IC50 at CDK4/cyclin D1 worked out at 1.38 nM; against CDK6/cyclin D1 it was 5.79 nM; against CDK2/cyclin A, 32.8 nM; in the data set on MCF-7 cells it was 265 nM; with MDA-MB-436 cells, 3280 nM. Also, the MCF-7/MDA-MB-436 with MCF-7 cells is on record as 12.4.

Source of the values: patent US9969719B2, “Substituted 2-hydrogen-pyrazole derivative serving as anticancer drug” (CHIA TAI TIANQING PHARMACEUTICAL GROUP CO., LTD., priority 2015, dated 2018).
